Ring closure, isolated yield, growth inhibition and ring closure, yield after HPLC data for six substances are collected here from article PMC11311250 (Organic & biomolecular chemistry, 2023).

Like-named read-outs stand apart in the source and are kept apart here.

The conditions of data set [1]: amide bond, 12-membered ring.
For data set [2], the system named is P. aeruginosa K799. Kind of data set: antibacterial microdilution growth inhibition. Type of data set: cell-based, Pseudomonas aeruginosa.
For data set [3] the following is noted: amide bond; 12-membered ring; T3P/DIEA; DMF; 45.0 °C.
Where [4] appears, read: T3P/DIEA, DCE, 1.0 mM, 80.0 °C, 3 steps.
Where [5] appears, read: T3P/collidine, DCE, 1.0 mM, 80.0 °C, 3 steps.

As to “(3S,6S,9R,12S)-3,9-dibenzyl-1,6,7,12-tetramethyl-1,4,7,10-tetraazacyclododecane-2,5,8,11-tetraone (cyclo (L-N-Me-Ala–L-Phe–L-N-Me-Ala-D-Phe))”, the ring closure, isolated yield in data set [1] (setting [4]) was determined as 5%.
ALAL: the ring closure, isolated yield in data set [1] (setting [5]) turned out to be 11%.
On to “all-L cyclo(N-Me-Leu–Phe)2 (head to tail) [pseudoxylallemycin A]”, for which the growth inhibition entry in data set [2] is given as “failed to inhibit the growth”.
Substance epi-pseudoxylallemycin gave a ring closure, isolated yield in data set [1] (T3P/DIEA, DCM/DMF 9:1, 45.0 °C) of 26%.
Substance epi-pseudoxylallemycin A yielded a ring closure, isolated yield in data set [1] (setting [5]) of 33%.
Take pseudoxylallemycin A: the ring closure, isolated yield in data set [1] (setting [4]) came to 18.1%; in data set [1] (T3P/DIEA, DMF, 1.0 mM, 45.0 °C, 3 steps) it was 11.7%; in data set [1] (T3P/DIEA, DMF, 1.0 mM, 80.0 °C, 3 steps), 14.7%; in data set [1] (T3P/DtBP, DCE, 1.0 mM, 80.0 °C, 3 steps) it was 19%; in data set [1] (setting [5]), 36%; in data set [1] (T3P/pyridine, DCE, 1.0 mM, 80.0 °C, 3 steps), 32%. This substance had a ring closure, yield after HPLC in data set [3] of 24%.
